Measured values as given in the OligoGym collection.
HELM strings list units from the 5' end as sugar, base in round brackets, then linkage (d deoxyribose, r ribose, m 2'-O-methyl, p phosphodiester). Strings are as the collection lists them; they lack the last nucleoside at the 3' end of the tested compound. [moe] = 2'-O-(2-methoxyethyl) (MOE); [sp] = phosphorothioate linkage; [m5C] = 5-methylcytosine

target: SCN2A; assay: mouse, dose not given; conditions: ASO

Compared with “RNA1{[moe](T)[sp].[moe]([m5C])p.[moe](T)p.[moe](A)[sp].d(T)[sp].d(T)[sp].d(T)[sp].d(T)[sp].d(A)[sp].d(T)[sp].d(A)[sp].d(A)[sp].[moe](A)p.[moe](T)p.[moe](G)p.[moe]([m5C])[sp].[moe]([m5C])}$$$$ (last 3' nucleoside missing)”, “RNA1{[moe](T)[sp].[moe]([m5C])p.[moe](T)p.[moe](A)p.[moe](T)[sp].d(T)[sp].d(T)[sp].d(T)[sp].d(A)[sp].d(T)[sp].d(A)[sp].d(A)[sp].d(A)[sp].[moe](T)p.[moe](G)p.[moe]([m5C])[sp].[moe]([m5C])}$$$$ (last 3' nucleoside missing)” is higher in 3 h FOB score: 1 score 0-7 for the first, 1.33 score 0-7 for the second.

Going from “RNA1{[moe](T)[sp].[moe]([m5C])p.[moe](T)p.[moe](A)p.[moe](T)p.[moe](T)[sp].d(T)[sp].d(T)[sp].d(A)[sp].d(T)[sp].d(A)[sp].d(A)[sp].d(A)[sp].d(T)[sp].[moe](G)p.[moe]([m5C])[sp].[moe]([m5C])}$$$$ (last 3' nucleoside missing)” to “RNA1{[moe](T)[sp].[moe]([m5C])p.[moe](T)p.[moe](G)[sp].d([m5C])[sp].d(A)[sp].d(T)[sp].d(G)[sp].d(T)[sp].d(A)[sp].d(A)[sp].d([m5C])[sp].[moe]([m5C])p.[moe](T)p.[moe](T)p.[moe](T)[sp].[moe](A)}$$$$ (last 3' nucleoside missing)”, the 3 h FOB score rises from 1 score 0-7 to 2 score 0-7.

First: RNA1{[moe](T)[sp].[moe]([m5C])p.[moe](T)p.[moe](G)p.[moe]([m5C])[sp].d(A)[sp].d(T)[sp].d(G)[sp].d(T)[sp].d(A)[sp].d(A)[sp].d([m5C])[sp].d([m5C])[sp].[moe](T)p.[moe](T)p.[moe](T)[sp].[moe](A)}$$$$ (last 3' nucleoside missing)
Second: RNA1{[moe](T)[sp].[moe]([m5C])p.[moe](T)p.[moe](G)p.[moe]([m5C])p.[moe](A)[sp].d(T)[sp].d(G)[sp].d(T)[sp].d(A)[sp].d(A)[sp].d([m5C])[sp].d([m5C])[sp].d(T)[sp].[moe](T)p.[moe](T)[sp].[moe](A)}$$$$ (last 3' nucleoside missing)
The 3 h FOB score of the first is higher: 1 score 0-7 for the first, 0.33 score 0-7 for the second.

“RNA1{[moe](T)[sp].[moe]([m5C])p.[moe](T)p.[moe](G)p.[moe]([m5C])p.[moe](A)p.d(T)[sp].d(G)[sp].d(T)[sp].d(A)[sp].d(A)[sp].d([m5C])[sp].d([m5C])[sp].d(T)[sp].d(T)[sp].d(T)[sp].[moe](A)p.[moe](T)[sp].[moe](A)}$$$$ (last 3' nucleoside missing)” and “RNA1{[moe](T)[sp].[moe]([m5C])p.[moe](T)p.[moe](G)p.[moe]([m5C])p.d(A)[sp].d(T)[sp].d(G)[sp].d(T)[sp].d(A)[sp].d(A)[sp].d([m5C])[sp].d([m5C])[sp].d(T)[sp].d(T)[sp].[moe](T)p.[moe](A)p.[moe](T)[sp].[moe](A)}$$$$ (last 3' nucleoside missing)” are the same in 3 h FOB score: 0 score 0-7 for the first, 0 score 0-7 for the second.

Compared with “RNA1{[moe](T)[sp].[moe]([m5C])p.[moe](T)p.[moe](G)p.d([m5C])[sp].d(A)[sp].d(T)[sp].d(G)[sp].d(T)[sp].d(A)[sp].d(A)[sp].d([m5C])[sp].d([m5C])[sp].d(T)[sp].[moe](T)p.[moe](T)p.[moe](A)p.[moe](T)[sp].[moe](A)}$$$$ (last 3' nucleoside missing)”, “RNA1{[moe](T)[sp].[moe]([m5C])p.[moe](T)p.[moe](T)p.[moe](T)p.d([m5C])[sp].d(T)[sp].d(T)[sp].d(A)[sp].d(T)[sp].d(T)[sp].d(T)[sp].d([m5C])[sp].d(T)[sp].d(G)[sp].[moe](T)p.[moe](T)p.[moe](T)[sp].[moe]([m5C])}$$$$ (last 3' nucleoside missing)” is higher in 3 h FOB score: 1 score 0-7 for the first, 1.67 score 0-7 for the second.

“RNA1{[moe](T)[sp].[moe]([m5C])p.[moe](T)p.[moe](T)p.d(T)[sp].d([m5C])[sp].d(T)[sp].d(T)[sp].d(A)[sp].d(T)[sp].d(T)[sp].d(T)[sp].d([m5C])[sp].d(T)[sp].[moe](G)p.[moe](T)p.[moe](T)p.[moe](T)[sp].[moe]([m5C])}$$$$ (last 3' nucleoside missing)” and “RNA1{[moe](T)[sp].[moe]([m5C])p.[moe](T)p.[moe]([m5C])p.[moe](T)p.d(T)[sp].d(T)[sp].d([m5C])[sp].d(T)[sp].d(T)[sp].d(A)[sp].d(T)[sp].d(T)[sp].d(T)[sp].d([m5C])[sp].[moe](T)p.[moe](G)p.[moe](T)[sp].[moe](T)}$$$$ (last 3' nucleoside missing)” are the same in 3 h FOB score: 0 score 0-7 for the first, 0 score 0-7 for the second.

“RNA1{[moe](T)[sp].[moe]([m5C])p.[moe](T)p.[moe]([m5C])p.d(T)[sp].d(T)[sp].d(T)[sp].d([m5C])[sp].d(T)[sp].d(T)[sp].d(A)[sp].d(T)[sp].d(T)[sp].d(T)[sp].[moe]([m5C])p.[moe](T)p.[moe](G)p.[moe](T)[sp].[moe](T)}$$$$ (last 3' nucleoside missing)” and “RNA1{[moe](T)[sp].[moe]([m5C])p.[moe]([m5C])p.[moe](A)p.[moe]([m5C])p.[moe](G)p.d(A)[sp].d([m5C])[sp].d(A)[sp].d(T)[sp].d(A)[sp].d(T)[sp].d(T)[sp].d(T)[sp].d(T)[sp].d(T)[sp].[moe]([m5C])p.[moe](T)[sp].[moe](A)}$$$$ (last 3' nucleoside missing)” are the same in 3 h FOB score: 0 score 0-7 for the first, 0 score 0-7 for the second.

First: RNA1{[moe](T)[sp].[moe]([m5C])p.[moe]([m5C])p.[moe](A)p.[moe]([m5C])p.d(G)[sp].d(A)[sp].d([m5C])[sp].d(A)[sp].d(T)[sp].d(A)[sp].d(T)[sp].d(T)[sp].d(T)[sp].d(T)[sp].[moe](T)p.[moe]([m5C])p.[moe](T)[sp].[moe](A)}$$$$ (last 3' nucleoside missing)
Second: RNA1{[moe](T)[sp].[moe]([m5C])p.[moe]([m5C])p.[moe](A)p.d([m5C])[sp].d(G)[sp].d(A)[sp].d([m5C])[sp].d(A)[sp].d(T)[sp].d(A)[sp].d(T)[sp].d(T)[sp].d(T)[sp].[moe](T)p.[moe](T)p.[moe]([m5C])p.[moe](T)[sp].[moe](A)}$$$$ (last 3' nucleoside missing)
The 3 h FOB score of the first is higher: 1.33 score 0-7 for the first, 0 score 0-7 for the second.

Going from “RNA1{[moe]([m5C])[sp].[moe](A)p.[moe](G)p.[moe](T)p.d(T)[sp].d(T)[sp].d(T)[sp].d(T)[sp].d(T)[sp].d([m5C])[sp].d(A)[sp].d(T)[sp].d(T)[sp].d(G)[sp].[moe]([m5C])p.[moe](A)p.[moe](T)p.[moe]([m5C])[sp].[moe]([m5C])}$$$$ (last 3' nucleoside missing)” to “RNA1{[moe]([m5C])[sp].[moe](A)p.[moe](G)p.[moe]([m5C])p.[moe](A)p.[moe](T)p.d(A)[sp].d(T)[sp].d(T)[sp].d([m5C])[sp].d(T)[sp].d(A)[sp].d(A)[sp].d([m5C])[sp].d(A)[sp].d(T)[sp].[moe](G)p.[moe](G)[sp].[moe](T)}$$$$ (last 3' nucleoside missing)”, the 3 h FOB score falls from 2 score 0-7 to 0 score 0-7.

“RNA1{[moe]([m5C])[sp].[moe](A)p.[moe](G)p.[moe]([m5C])p.[moe](A)p.[moe](T)p.d(G)[sp].d(T)[sp].d(T)[sp].d(T)[sp].d(A)[sp].d(T)[sp].d([m5C])[sp].d(T)[sp].d(T)[sp].d(A)[sp].[moe](G)p.[moe](T)[sp].[moe](T)}$$$$ (last 3' nucleoside missing)” and “RNA1{[moe]([m5C])[sp].[moe](A)p.[moe](G)p.[moe]([m5C])p.d(A)[sp].d(T)[sp].d(A)[sp].d(T)[sp].d(T)[sp].d([m5C])[sp].d(T)[sp].d(A)[sp].d(A)[sp].d([m5C])[sp].[moe](A)p.[moe](T)p.[moe](G)p.[moe](G)[sp].[moe](T)}$$$$ (last 3' nucleoside missing)” are the same in 3 h FOB score: 0 score 0-7 for the first, 0 score 0-7 for the second.

“RNA1{[moe]([m5C])[sp].[moe](A)p.[moe](G)p.[moe]([m5C])p.d(A)[sp].d(T)[sp].d(G)[sp].d(T)[sp].d(T)[sp].d(T)[sp].d(A)[sp].d(T)[sp].d([m5C])[sp].d(T)[sp].[moe](T)p.[moe](A)p.[moe](G)p.[moe](T)[sp].[moe](T)}$$$$ (last 3' nucleoside missing)” and “RNA1{[moe]([m5C])[sp].[moe](A)p.[moe](T)p.[moe](A)p.[moe](A)p.[moe](T)p.d([m5C])[sp].d([m5C])[sp].d([m5C])[sp].d(A)[sp].d(T)[sp].d(T)[sp].d(A)[sp].d(T)[sp].d(A)[sp].d([m5C])[sp].[moe](A)p.[moe](A)[sp].[moe](A)}$$$$ (last 3' nucleoside missing)” are the same in 3 h FOB score: 0 score 0-7 for the first, 0 score 0-7 for the second.

First: RNA1{[moe]([m5C])[sp].[moe](A)p.[moe](T)p.[moe](A)p.[moe](A)p.d(T)[sp].d([m5C])[sp].d([m5C])[sp].d([m5C])[sp].d(A)[sp].d(T)[sp].d(T)[sp].d(A)[sp].d(T)[sp].d(A)[sp].[moe]([m5C])p.[moe](A)p.[moe](A)[sp].[moe](A)}$$$$ (last 3' nucleoside missing)
Second: RNA1{[moe]([m5C])[sp].[moe](A)p.[moe](T)p.[moe](A)p.[moe](T)p.d(T)[sp].d(T)[sp].d(T)[sp].d(T)[sp].d([m5C])[sp].d(T)[sp].d(A)[sp].d([m5C])[sp].d(A)[sp].d([m5C])[sp].[moe](T)p.[moe](G)p.[moe]([m5C])[sp].[moe](T)}$$$$ (last 3' nucleoside missing)
The 3 h FOB score of the first is lower: 0 score 0-7 for the first, 2 score 0-7 for the second.

Going from “RNA1{[moe]([m5C])[sp].[moe](A)p.[moe](T)p.[moe](A)p.d(A)[sp].d(T)[sp].d([m5C])[sp].d([m5C])[sp].d([m5C])[sp].d(A)[sp].d(T)[sp].d(T)[sp].d(A)[sp].d(T)[sp].[moe](A)p.[moe]([m5C])p.[moe](A)p.[moe](A)[sp].[moe](A)}$$$$ (last 3' nucleoside missing)” to “RNA1{[moe]([m5C])[sp].[moe](A)p.[moe](T)p.[moe](A)p.d(T)[sp].d(T)[sp].d(T)[sp].d(T)[sp].d(T)[sp].d([m5C])[sp].d(T)[sp].d(A)[sp].d([m5C])[sp].d(A)[sp].[moe]([m5C])p.[moe](T)p.[moe](G)p.[moe]([m5C])[sp].[moe](T)}$$$$ (last 3' nucleoside missing)”, the 3 h FOB score rises from 0 score 0-7 to 2 score 0-7.

“RNA1{[moe]([m5C])[sp].[moe](A)p.[moe](T)p.[moe](G)[sp].d(T)[sp].d(A)[sp].d(A)[sp].d([m5C])[sp].d([m5C])[sp].d(T)[sp].d(T)[sp].d(T)[sp].[moe](A)p.[moe](T)p.[moe](A)p.[moe]([m5C])[sp].[moe](A)}$$$$ (last 3' nucleoside missing)” was tested, and the 3 h FOB score was 0 score 0-7.
